pIC50: −log10 of the molar value.
Molecular target: Indoleamine 2,3-dioxygenase 1 (Homo sapiens, UniProt P14902)
Test: Inhibition of human recombinant IDO1 using L-Trp as substrate assessed as kynurenine level after 30 mins

Chain of Indoleamine 2,3-dioxygenase 1 (P14902 whole entry): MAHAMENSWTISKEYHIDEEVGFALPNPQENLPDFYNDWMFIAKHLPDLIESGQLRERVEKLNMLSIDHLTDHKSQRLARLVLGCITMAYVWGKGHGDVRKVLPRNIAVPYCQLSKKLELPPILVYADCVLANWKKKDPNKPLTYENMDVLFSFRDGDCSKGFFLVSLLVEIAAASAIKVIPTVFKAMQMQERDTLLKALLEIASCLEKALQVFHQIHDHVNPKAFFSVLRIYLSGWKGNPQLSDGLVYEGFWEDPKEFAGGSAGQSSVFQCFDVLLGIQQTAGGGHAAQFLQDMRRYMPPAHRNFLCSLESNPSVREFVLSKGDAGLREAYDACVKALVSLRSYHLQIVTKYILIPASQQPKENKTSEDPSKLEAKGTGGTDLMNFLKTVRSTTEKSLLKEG

| pIC50 | Compound |
| --- | --- |
| 5.25 | COc1ccc(C2CN=C3C(=O)c4ccn(S(=O)(=O)c5ccc(C)cc5)c4C(=O)C32)cc1 (configuration not stated) |
| 5.25 | COc1ccc(C2CN=C3C(=O)c4c(CCN)cn(S(=O)(=O)c5ccc(C)cc5)c4C(=O)C32)cc1 (configuration not stated) |
